Entries after “also recorded” stand apart in the source; their conditions may differ. Ends that are not written are not given here.
Experiments:
[1] = system: p-UPF1 (Ser1096); experiment: Western blot of p-UPF1 (Ser1096) in CPP-peptide-treated hPSCs; assay type: cell-based, human; settings: for p-UPF1 (Ser1096)/Calnexin, mean: relative to CPP-P1 = 100, n = 3
Method: For CPP-conjugated peptide delivery, HeLa, 293T, and PA-1 cells were incubated with CPP-conjugated peptides or CPP-FITC at 2 μM in DMEM with 10% FBS for 12 h a day before cell harvest. hPSCs were treated with CPP-conjugated peptides at 10 μM in mTeSR Plus Medium, and the peptide-containing medium was changed every day over 10 days. The ROCK inhibitor (Tocris Bioscience, Y-27632) treated-hPSCs were dissociated into single cells using Accutase (Merck, SCR005) and differentiated into ectoderm, mesoderm, and endoderm using the STEMdiff Trilineage Differentiation Kit ([…] Technologies, 05230) following the manufacturer’s protocol. Differentiated cells treated with CPP-conjugated peptides were analysed at 0, 3, and 5 days for ectoderm and endoderm, and at 0, 3, and 4 days for mesoderm.
Protein samples were loaded for electrophoresis on sodium dodecyl sulphate (SDS) polyacrylamide gels, followed by Coomassie blue staining or transferred to nitrocellulose membranes (Cytiva) for WB. After blocking with 5% non-fat milk (Cellconic) in Tris-buffered saline with Tween-20 for 30 min at room temperature, the membranes were incubated with the following primary antibodies: anti-FLAG (GenScript, A00187; 1:2000), UPF1 (Cell Signaling Technology, 12040; 1:4000), UPF2 (Cell Signaling Technology, 11875; 1:2000), eIF4E (Cell Signaling Technology, 2067; 1:2000), β-actin (Sigma-Aldrich, A2228; 1:4000), GST (Cytiva, 27-4577-01; 1:2000), MYC (Calbiochem, OP10; 1:2000), Calnexin (Cell Signaling Technology, 2679; 1:4000), LIN28A (Cell Signaling Technology, 3978; 1:2000), pSer1096 phosphorylated UPF1 (1:2000)[58], or p-Thr28 phosphorylated UPF1 (ImmuQuest, IQ653; 1:2000). Primary antibodies were incubated overnight at 4 °C and then washed thrice with TBS-T, followed by incubation with secondary antibodies: Goat anti-Rabbit IgG (Invitrogen, 31460; 1:4000), Goat anti-Mouse IgG (Invitrogen, 31430; 1:4000), or Horse anti-Goat IgG (Vector Laboratories, PI-9500; 1:4000) for 1 h at room temperature. For pull-downed protein detection, all primary and secondary antibodies were diluted at 1:10,000. The blots were imaged using ChemiDoc XRS+ System (Bio-Rad) and the greyscale intensity values were quantified using Image Lab 3.0 software (Bio-Rad).
DAPI FITC Merge DAPI FITC Merge CHA15 H9 Pro2 H9
No peptide CPP-FITC Calnexin
For 2-day treatm ent For 4-day treatm ent […]
Student’s t-test was used. Data are presented as m ean values ± S.D (b) and mean values ± SEM (c and d). All statistical test us ed wer e two-s ided. T he m inim um num ber of independent biological replicate experim ents was a, b, and d n = 3, c n = 5. T he experim ents wer e conducted three tim es, each iteration producing consistent results. […]

[2] = system: let-7a, let-7g, miR-16-5p and their targets in CHA15 cells; experiment: RT-qPCR of mature LIN28A-regulated miRNAs and CDF of let-7-5p / miR-16-5p target mRNAs (Supplementary Fig. 6f); assay type: cell-based, human; parameters: key to let-7a level (RT-qPCR): relative level normalised to U6 snRNA; settings: for let-7a level (RT-qPCR): Fig. s6f, dot plots, CHA15 cells
Method: cDNA was synthesised using RevertAid Reverse Transcriptase (Thermo Fisher Scientific, EP0441) with synthesised random hexamer (Macrogen) for total RNA or stem-loop primers for miRNA. For RT-qPCR reactions, the SensiFAST SYBR No-ROX kit (Meridian Bioscience) was used according to the manufacturer’s protocol. All data analysis and visualisation were conducted using R 3.6.1 [www.r-project.org] or GraphPad Prism 10. RT primers for miRNA and RT-qPCR primer sequences are provided in Supplementary Data 6.
Genes regulated by miRNA let-7-5p and miR-16-5p were determined by TargetScanHuman. Among miRNA targets sorted by cumulative weighted context++ score (CWCS)[57], the 100 top genes were selected and analysed using CDF. […]
Scatter
(bottom panel), respectively. f Levels of m ature endogenous m iRNAs in CHA15 cells, which were regulated by LIN28A, were assessed using RT -qPCR. Cum ulative f raction of log2 fold change in the expression of genes regulated by let-7-5p and m iR-16- 5p was shown as CDF graphs. T he relative level of m RNA was norm alised to that of U6 snRNA in (c, d, and f). K–S tests were used for e and f. Unpaired Student’s t-test was used for c , d, and f . * p < 0.05, ** p < 0.01, *** p < 0.001. Exact p -values were provided in Source data. Data are presented as m ean values ± SEM. All statistical test used were two- sided. T he m inim um num ber of independent biological replicate experim ents was a and e n = 2, b–d and f n = 3. T he experim ents were conducted three tim es, each iteration producing consistent results.

KKKWCRKKKSSADEKRYRALKRTAERELLMNA [CPP-P8, CPP conjugated to P8]
phosphorylated UPF1 ([1]; CHA15 and Pro2 cells, 10 μM): increased phosphorylated UPF1 in CHA15 and Pro2 cells; also recorded: upregulation of p-UPF1 in CHA15 and Pro2 cells | p-UPF1 levels after longer treatment ([1]; H9, 4-day treatment): upregulates the levels of p-UPF1 | p-UPF1 levels ([1]; H9 cells, short treatment, 10 μM): did not elicit a corresponding increase in p-UPF1 levels in H9 cells | LIN28A-regulating miRNAs and their target mRNAs ([2]; CHA15): did not alter the expression of LIN28A-regulating miRNAs and their target mRNAs

N-QKLDQKELQLEPM-C [P1, reference compound]
p-UPF1 (Ser1096)/Calnexin, mean ([1]; CHA15, 2-day treatment): 100% | p-UPF1 (Ser1096)/Calnexin, mean ([1]; H9, 2-day treatment): 100% | p-UPF1 (Ser1096)/Calnexin, mean ([1]; H9, 4-day treatment): 100% | p-UPF1 (Ser1096)/Calnexin, mean ([1]; Pro2, 2-day treatment): 100% | let-7a level (RT-qPCR) ([2]; replicate 1): 0.8272 | let-7a level (RT-qPCR) ([2]; replicate 2): 1.208 | let-7a level (RT-qPCR) ([2]; replicate 3): 0.9649

N-MPELQKLQQLKDE-C [P2, peptide derived from the UPF1 (419–700) domain]
let-7a level (RT-qPCR) ([2]; replicate 1): 0.9342 | let-7a level (RT-qPCR) ([2]; replicate 2): 0.9709 | let-7a level (RT-qPCR) ([2]; replicate 3): 0.9188

KKKWCRKKKSSADEKRYRALKRTAERELLMNA [P8]
p-UPF1 (Ser1096)/Calnexin, mean ([1]; CHA15, 2-day treatment): 203% | p-UPF1 (Ser1096)/Calnexin, mean ([1]; H9, 2-day treatment): 91% | p-UPF1 (Ser1096)/Calnexin, mean ([1]; H9, 4-day treatment): 226% | p-UPF1 (Ser1096)/Calnexin, mean ([1]; Pro2, 2-day treatment): 244% | let-7a level (RT-qPCR) ([2]; replicate 1): 0.9027 | let-7a level (RT-qPCR) ([2]; replicate 2): 0.8569 | let-7a level (RT-qPCR) ([2]; replicate 3): 0.8754

From paper PMC10762078, “Role of UPF1-LIN28A interaction during early differentiation of pluripotent stem cells” (Nature Communications, 2024)
